For one compound, Kd results are on record in publication PMC11866408, “LOPAC library screening identifies suramin as a TRIM21 binder with a unique binding mode revealed by crystal structure” (Acta Crystallographica Section F: Structural Biology …, 2025).

Structures are written as SMILES.

Assay [1] deals with T1, TRIM21 PRYSPRY domain (human) (Homo sapiens, UniProt P19474).
T1 construct: PRYSPRY domain, residues Val287–Leu465, His6-SUMO tag cleaved
Description: ITC; DSF shift […] K. It counts as binding.

Assay [2] has as its target T2, TRIM21 PRYSPRY domain (mouse) (Mus musculus, UniProt Q62191).
T2 construct: PRYSPRY domain, residues Val291–Met470, N-terminal His6-tag
T2 sequence (Q62191 291-470): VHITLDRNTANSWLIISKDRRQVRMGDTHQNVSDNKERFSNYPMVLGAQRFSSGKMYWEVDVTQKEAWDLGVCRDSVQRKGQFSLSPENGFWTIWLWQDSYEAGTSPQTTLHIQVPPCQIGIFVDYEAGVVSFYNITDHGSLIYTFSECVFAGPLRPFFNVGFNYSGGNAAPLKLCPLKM
Description: co-crystal structure at […] Å; ITC. Type of assay: binding.

T1 sequence (P19474 287-465): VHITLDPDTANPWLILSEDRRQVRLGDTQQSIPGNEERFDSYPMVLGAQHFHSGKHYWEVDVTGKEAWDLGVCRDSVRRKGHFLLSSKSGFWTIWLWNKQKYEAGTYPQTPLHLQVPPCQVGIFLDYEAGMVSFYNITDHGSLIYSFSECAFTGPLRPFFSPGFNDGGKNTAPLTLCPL

In the case of `Cc1ccc(C(=O)Nc2ccc(S(=O)(=O)O)c3cc(S(=O)(=O)O)cc(S(=O)(=O)O)c23)cc1NC(=O)c1cccc(NC(=O)Nc2cccc(C(=O)Nc3cc(C(=O)Nc4ccc(S(=O)(=O)O)c5cc(S(=O)(=O)O)cc(S(=O)(=O)O)c45)ccc3C)c2)c1` [suramin], the values for the dissociation constant (Kd) in assay [1] and in assay [2] were around 8 µM and around 9 µM, respectively.
